These results are taken from article PMC9917214, “Assessment of the Permeability of 3,4-Methylenedioxypyrovalerone (MDPV) across the Caco-2 Monolayer for Estimation of Intestinal Absorption and Enantioselectivity” (International Journal of Molecular Sciences, 2023).

Data set [1] in a line: Sample stability in HBSS (+/+) after 6 weeks of storage (UHPLC-UV peak area). Type of data set: physicochemical. Here is the method:
To evaluate stability, three different calibrators within the linear concentration range (10 (low), 100 (medium), and 500 (high) μM) were prepared and injected into the UHPLC. The remaining volume of each calibrator was divided into several vials and further stored at different temperatures (room temperature, 4 °C, −20 °C, and −80 °C) for 6 weeks (the same storage time of the samples obtained from the permeability assay with Caco-2 cells). After the storage period, samples were injected in duplicate and the obtained analyte peak area for each calibrator in each temperature was compared with the peak area obtained on day 0. Percentages of peak variation were calculated for each concentration.

Data set [2] has as its system Caco-2 cells. The experiment in a line: Cell viability assay (Neutral Red) in Caco-2 cells. Type of data set: cell-based, human. Conditions: 24 h, NR assay. Here is the method: MDPV cytotoxicity for the Caco-2 cell line was evaluated through the NR assay as previously described. This method provides an indication of the ability of lysosomes from viable cells to incorporate the NR dye. Caco-2 cells were seeded onto 96-well plates using a density of 60,000 cells/cm^2 to obtain confluent monolayers at the experimental day. The cells were incubated with the racemate of MDPV (0, 50, 150, 300, 500, 750, 1000, 1250, and 1500 µM) in fresh cell culture medium for 24 h. After the selected time interval, the cell culture medium was removed and replaced by a 50 µg/mL NR solution in HBSS (+/+) for 90 min, after which the NR solution was discarded, a lysis solution (50% EtOH/1% glacial acetic acid solution) was added, and the absorbance was read at 540 nm in a 96-well plate reader (PowerWaveX; Bio-Tek, Winooski, VT, USA). Additionally, 1% Triton X-100 was used as the positive control. Data were expressed as the percentage of cell viability relative to untreated cells. Data were obtained from four independent experiments performed in triplicate.

The test system of data set [3] is Caco-2 model. Also on record: method as in PMID 32234388. Conditions: cited from earlier work.
Data set [4] concerns Caco-2 monolayer. As to the kind of experiment: Permeability assay across the Caco-2 monolayer. It counts as in vitro ADME, human. Particulars: mean ± SD; for Mass Balance (%): 300 µM in HBSS (+/+), 300 min. The protocol: For the in vitro permeability assay, Caco-2 cells were seeded on polycarbonate transwell inserts (12-well, 0.4 μm pores, Corning) using a density of 120,000 cells/cm^2 and cultivated for twenty-one days to allow the development of a differentiated monolayer. TEER was measured to control the integrity of the monolayers for twenty-one days.
After twenty-one days, the cells were incubated with 300 µM of each enantiomer of MDPV (in HBSS (+/+)). The assay was performed for both AP to BL and BL to AP directions. For AP to BL, exposure to the enantiomers was performed in the AP compartment (450 µL) while for BL to AP, exposure was made in the BL compartment (1250 µL). Right after the exposure (time 0), 50 µL was collected from each donor compartment (where exposure was performed). At suitable time intervals (40, 60, 90, 120, 180, 240, and 300 min), 600 µL (for AP to BL) and 200 µL (for BL to AL) of samples was collected from the BL and AP compartments (receiver compartments), respectively, and the same amount of HBSS (+/+) was added. In the last time point (300 min), 50 µL was also collected from the donor compartment. Collected samples were stored at −80 °C until the day of the UHPLC analysis. After 6 weeks of storage, samples were filtered with a 13 mm nylon syringe filter with […] pore size from Olimpeak™ and quantification was performed by the validated UHPLC-UV method. Results were obtained for three experiments, performed in duplicate.
Mass balance was calculated using the following equation [31]:(5) % Mass balance=100×QR,T+QD,f/QD,0 where QR,T is the total cumulative quantity in the receiver chamber (nmol), QD,f is the final quantity in the donor chamber (nmol), and QD,0 is the initial quantity in the donor chamber (nmol).
To calculate Papp, first, a determination had to be made to determine whether the results were under sink or non-sink conditions. […] If the ratio is higher, Papp has to be calculated considering a non-sink analysis.
For sink conditions, Papp was calculated in cm/s using the following equation [24]:(6) Papp=ΔQ/Δt×1/A×C0 where ΔQ/Δt is the amount of compound over time (mol/s), A is the surface area of the monolayer (cm^2), and C0 is the initial drug concentration on the donor side (mol/mL).
For non-sink conditions, a continuous change of the donor and receiver concentrations is considered, and the following equation must be used for each time interval to calculate the theoretical concentration at the receiver side:(7) CR(t)=(Qtot/VD+VR)+(CR(t−1)×f−Qtot/VD+VR)×e^−P×A×(1/VR+1/VD)×Δt where CR(t) is the theoretical concentration in the receiver side at time t (µM), Qtot is the total amount of drug in both chambers at time t (nmol), VR and VD are the volumes in the receiver and donor compartments (mL), respectively, CR(t-1) is the concentration in the receiver chamber at the previous time (µM), f is the dilution factor for the sample replacement, A is the surface area of the monolayer (cm^2), Δt is the time interval (s), and P is an initial approximation of the permeability coefficient calculated through Equation (6) (cm/s).
Papp values are determined by the minimization of the Sum of Squared Residuals (SSR):(8) SSR=∑[CR(t)theor−CR(t)exp]^2 where CR(t)theor is the theoretical concentration in the receiver side at time t calculated through Equation (7) and CR(t)exp is the experimental concentration in the receiver side at time t obtained directly from the quantification of the samples. […]

For data set [5], the system named is Caco-2 cells. Conditions: racemates; cited from earlier work.

Consider `CCCC(C(=O)c1ccc2c(c1)OCO2)N1CCCC1` (centres unmarked) [MDPV, 3,4-Methylenedioxypyrovalerone], for which the “% peak area variation relative to day 0” value in data set [1] (10 µM in HBSS (+/+), 6 weeks of storage at 4 °C) stood at 10.9%; in data set [1] (10 µM in HBSS (+/+), 6 weeks of storage at RT), 11.0%; in data set [1] (10 µM in HBSS (+/+), 6 weeks of storage at −20 °C) it was 12.5%; in data set [1] (10 µM in HBSS (+/+), 6 weeks of storage at −80 °C), 7.1%; in data set [1] (100 µM in HBSS (+/+), 6 weeks of storage at 4 °C), 9.1%; in data set [1] (100 µM in HBSS (+/+), 6 weeks of storage at RT) it was 11.9%. Further, the “% peak area variation relative to day 0” value in data set [1] (100 µM in HBSS (+/+), 6 weeks of storage at −20 °C) is given as 10.4%; in data set [1] (100 µM in HBSS (+/+), 6 weeks of storage at −80 °C), 8.6%; in data set [1] (500 µM in HBSS (+/+), 6 weeks of storage at 4 °C), 3.4%; in data set [1] (500 µM in HBSS (+/+), 6 weeks of storage at RT) it was 10.2%; in data set [1] (500 µM in HBSS (+/+), 6 weeks of storage at −20 °C), 5.3%; in data set [1] (500 µM in HBSS (+/+), 6 weeks of storage at −80 °C) it was 6.8%. Also, the “Concentration from which a significant decrease in cell viability was observed” value in data set [2] is reported as no less than 1000 µM. For the same molecule, in data set [2] (tested up to 1500 µM), the “Concentration with no statistically significant differences in cell viability” value is recorded as no more than 750 µM.
As to `CCC[C@@H](NC)C(=O)c1ccccc1` [R-(-)-pentedrone], in data set [3], the “Enantioselectivity in permeability (more permeable enantiomer)” value is listed as “most permeable”.
On to `CCC[C@@H](C(=O)c1ccc2c(c1)OCO2)N1CCCC1` [S-(-)-MDPV], for which the “Mass Balance (%)” value is 100 ± 2% in data set [4] (AP → BL direction) and 101 ± 4% in data set [4] (BL → AP direction). Besides, the apparent permeability (Papp) in data set [4] (AP → BL direction, sink conditions (Equation 6), 300 µM) was 1.8e-05 ± 1e-06 cm/s; in data set [4] (BL → AP direction, non-sink conditions (Equation 7), 300 µM), 3.4 × 10^−5 ± 1 × 10^−6 ****^; # cm/s. Further, the “Efflux Ratio” value in data set [4] (Papp (BL→AP)/Papp (AP→BL), 300 µM) is recorded as 1.8 ± 0.2.
Regarding `CN[C@@H](C)C(=O)c1ccc2c(c1)OCO2` [S-(-)-methylone], the “Enantioselectivity in permeability (more permeable enantiomer)” value in data set [3] is given as “most permeable”.
In the case of `CNC(C)C(=O)c1ccc2c(c1)OCO2` (centres unmarked) [methylone], in data set [5], the “Concentration range with no cytotoxic effects” value is reported as “up to 2000 μM”.
With `CCCC(NC)C(=O)c1ccccc1` (centres unmarked) [pentedrone], the “Concentration range with no cytotoxic effects” value in data set [5] is listed as “up to 2000 μM”.

For orientation: Papp means a coefficient for how fast a substance crosses the barrier. A higher Papp goes with ready permeation.
